The record followed here is patent US20250152616A1, “COMPOSITIONS FOR AND METHODS OF TREATING, PREVENTING, AND/OR MITIGATING PAIN” (Duke University, priority 2022, published 2025).

The subject of test [1] is dissociated DRG neurons. Briefly: FluoVolt membrane potential imaging of dissociated DRG neurons. It is filed as cell-based, mouse. The conditions noted are these: NGF exposure 1 day; capsaicin stimulation. An excerpt: (§1) DRG were isolated from mice using a modified version of the previously described protocol (Perner C, et al. (2021) STAR Protoc. 2:100333). Briefly, mice were euthanized and dosed in 70% ethanol to prevent fur contamination. Mice were positioned prone, and an incision was made along the spine from the neck to the base of the tail. Under a dissecting microscope, the surrounding soft tissue of the spinal column was removed from the dorsal side by Friedman-Pearson Rongeurs (Fine Science Tools, Foster City, CA, Cat #16021-14) from the mid thoracic region to the lumbosacral joint. The vertebral bone surrounding the DRG was gently crushed and removed with rongeurs exposing the spinal cord. The DRG were carefully extracted near the foramen between the vertebral levels. L3 and L4 DRG were collected for analyses. Dissected DRG were placed directly into ice-cold DMEM-F12 medium (ThermoFisher, Cat #11320033) for in vitro culture, Trizol (ThermoFisher, Cat #15596018) for PCR analyses, or 4% PFA for histology. For cell culture experiments, collected DRG were digested in digestion solution comprised of collagenase type II (Worthington, Lakewood, NJ, Cat #LS004176) and dispase (1.5 mg/mL each) dissolved in DMEM/F12. […]
DRG neuron potential changes were evaluated with FluoVolt, a voltage sensitive indicator dye (ThermoFisher, Cat #F10488). […]

In another test the test system is TRPV1. Briefly: Immunofluorescence staining of TRPV1 in cultured DRG neurons. Type of test: cell-based, mouse. The conditions noted are these: NGF 200 ng/mL, 1 day incubation, DRG neurons from unfractured mice. Here is the method: To culture DRG neurons, culture media composed of Neurobasal-A medium (ThermoFisher, Cat #10888022), 2% B27 supplement (ThermoFisher, Cat #17504044), 1% glutamax (ThermoFisher, Cat #35050061), and penicillin/streptomycin (10000 U/mL, 1% v/v, ThermoFisher, Cat #15140122) was used. Cells were treated with or without NGF (200 ng/mL) for 24 hr prior to immunofluorescence imaging. Cells were exposed to NGF (200 ng/mL) for 24 hr (long-term) for calcium and FluoVolt imaging. Cells were cultured on custom-made glass surface with silicone wells. Briefly, cover slides (#1 thickness) were cleaned by agitating in 0.5 M NaOH for 30 minutes followed by subsequent rinsing in dH2O followed by 100% ethanol and air-dried. Wells were produced in cured polydimethylsiloxane (PDMS, Sylgard 184, Ellsworth Adhesives, Germantown, WI) with a 8-mm biopsy punch and bonding to the cover slides. […]
Sections were heated for antigen retrieval in citrate buffer (MilliporeSigma, Cat #C9999) for 20 min, permeabilized in 0.1% Triton X-100 in PBS for 10 min, followed by blocking for 1 hr in blocking solution comprised of 3% BSA, 0.26 M glycine, 5% normal donkey serum in Tris buffered saline (TBS) at room temperature. […] Fluorescence intensity was quantified by ImageJ software and presented in arbitrary units.

Test [2] deals with dissociated DRG neurons. In words: Fura-2 calcium imaging of dissociated DRG neurons stimulated with capsaicin. It is filed as cell-based, mouse. The conditions noted are these: NGF 200 ng/mL 24 hr vs no NGF; capsaicin 100 nM.
From the text: as §1, with “DMEM/F12. DRG were agitated in a digestion solution on an orbital shaker at 60 rpm and 37° C. for 20 minutes and repeated thrice with fresh digestion solution. Next, the digestion solution was replaced with trypsin-EDTA (0.025%) in DMEM/F12 and incubated for an additional 15 min to disrupt the remaining cell-to-cell adhesions. The solution was then replaced with DMEM/F12 and FBS (1:3) to neutralize trypsin. DRG were triturated to create a cell suspension and gently layered onto 15% bovine serum albumin (BSA) solution without mixing and centrifuged for 6 min at 280 g with minimal acceleration and no deceleration to separate non-neuronal cells and debris (Owen D E, et al. (2012) Methods Mol Biol. 846:179-187).” for “DMEM/F12.”
Intracellular cytosolic Ca^2+ was evaluated by Fura-2 loaded DRG neurons (Khomula E V, et al. (2019) J Neurosci. 39:7061-7073). […]

In the next test the target is T1, ADORA2B (Mus musculus, UniProt Q60614).
T1 construct: endogenous in cells; host or cells: primary mouse bone marrow mesenchymal stromal cells (BM-MSCs), passage 1-2
T1 sequence (Q60614 1-332): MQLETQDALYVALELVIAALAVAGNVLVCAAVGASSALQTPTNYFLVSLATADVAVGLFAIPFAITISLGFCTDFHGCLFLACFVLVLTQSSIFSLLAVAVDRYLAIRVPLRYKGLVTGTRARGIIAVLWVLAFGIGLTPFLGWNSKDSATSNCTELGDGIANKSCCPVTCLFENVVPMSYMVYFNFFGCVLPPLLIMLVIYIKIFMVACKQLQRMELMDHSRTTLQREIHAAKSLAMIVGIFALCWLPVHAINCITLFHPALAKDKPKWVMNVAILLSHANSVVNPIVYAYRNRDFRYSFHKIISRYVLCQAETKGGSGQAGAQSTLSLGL
In words: RT-qPCR of osteogenic genes in BM-MSCs with ADORA2B inhibitor. The conditions noted are these: BM-MSCs with adenosine 30 μg/mL plus PSB 603, 14 days, vs vehicle DMSO. Type of test: cell-based. Here is the method: MSCs were isolated as previously described with some modifications (Shih Y B, et al. (2019) Sci Adv. 5:eaax1387). Briefly, the femurs, tibiae, vertebrae of mice were harvested, crushed with pestle and mortar in harvest buffer (1% v/v FBS in PBS) to release bone marrow (BM) tissue, filtered through a 40-μm cell strainer, and centrifuged at 200 rcf. Cells were seeded in a 24-well plate at a cell density of 1 million cells/cm^2 in growth media (GM) containing α-MEM, FBS (10% v/v, ThermoFisher, Cat #16000044), penicillin/streptomycin (10000 U/mL; 1% v/v) and cultured in humidified incubator (37° C., 5% CO2). The medium was replaced after 3 days and further cultured for 6 days before passage. […]
Cells, DRG, or bone/marrow tissues were analyzed for gene expression by quantitative real-time polymerase chain reaction (RT-qPCR). […] Quantitative PCR was performed with iTaq Universal SYBR green reagent (Bio-Rad, Cat #1725124) with denaturation at 95° C. for 30 sec for one cycle, and amplification (denaturation+annealing/extension) at 95° C. for 5 sec and 60° C. for 30 sec for 40 cycles on a polymerase chain reaction (PCR) cycler (Bio-Rad, CFX96 Touch). […]
The expression level of each target gene was normalized to the housekeeping gene and to their respective controls and presented as fold change expressed as 2^−ΔΔCt values. […]

A further test addresses T2, ADORA1 (Mus musculus, UniProt Q60612).
T2 construct: endogenous in cells; host or cells: primary dissociated mouse L3-L4 DRG neurons
T2 sequence (Q60612 1-326): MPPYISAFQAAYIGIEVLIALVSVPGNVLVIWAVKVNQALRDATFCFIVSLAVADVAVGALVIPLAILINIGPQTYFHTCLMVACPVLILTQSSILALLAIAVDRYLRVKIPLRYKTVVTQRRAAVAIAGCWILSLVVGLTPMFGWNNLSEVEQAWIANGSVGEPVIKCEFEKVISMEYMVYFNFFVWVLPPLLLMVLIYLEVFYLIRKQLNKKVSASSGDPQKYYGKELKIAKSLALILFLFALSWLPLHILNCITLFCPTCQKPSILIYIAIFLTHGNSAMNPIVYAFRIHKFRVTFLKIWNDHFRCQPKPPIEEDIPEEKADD
Briefly: Fura-2 calcium imaging of NGF-exposed, adenosine-treated DRG neurons with ADORA1 inhibitor. The conditions noted are these: NGF-exposed DRG treated with adenosine 5 μM plus DPCPX 100 nM; capsaicin 100 nM; vehicle DMSO. It is filed as cell-based.

From the text for ADORA1: DRG were isolated from mice using a modified version of the previously described protocol (Perner C, et al. (2021) STAR Protoc. 2:100333). Briefly, mice were euthanized and dosed in 70% ethanol to prevent fur contamination. Mice were positioned prone, and an incision was made along the spine from the neck to the base of the tail. Under a dissecting microscope, the surrounding soft tissue of the spinal column was removed from the dorsal side by Friedman-Pearson Rongeurs (Fine Science Tools, Foster City, CA, Cat #16021-14) from the mid thoracic region to the lumbosacral joint. The vertebral bone surrounding the DRG was gently crushed and removed with rongeurs exposing the spinal cord. The DRG were carefully extracted near the foramen between the vertebral levels. L3 and L4 DRG were collected for analyses. […] For cell culture experiments, collected DRG were digested in digestion solution comprised of collagenase type II (Worthington, Lakewood, NJ, Cat #LS004176) and dispase (1.5 mg/mL each) dissolved in DMEM/F12. DRG were agitated in a digestion solution on an orbital shaker at 60 rpm and 37° C. for 20 minutes and repeated thrice with fresh digestion solution. […]

Turning to “NGF: nerve growth factor, used as model molecule for in vitro sensitization of DRG neurons”, the “membrane potential of DRG neurons (FluoVolt)” value with dissociated DRG neurons [1] is listed as “increased”. In addition, the “TRPV1 receptor expression in TUBB3-positive neurons” value in the test with TRPV1 was “significantly increased”. Besides, the “functional responses of DRG neurons to capsaicin (Fura-2 intensity)” value in the test with dissociated DRG neurons [2] was “increased”.

As for `CCCn1c(=O)[nH]c2nc(-c3ccc(S(=O)(=O)N4CCN(c5ccc(Cl)cc5)CC4)cc3)[nH]c2c1=O` [PSB 603], the “adenosine mediated upregulation of osteogenic markers (Runx2, Sp7, Ibsp)” value on ADORA2B is reported as “attenuated”.

As to `CCCn1c(=O)c2[nH]c(C3CCCC3)nc2n(CCC)c1=O` [DPCPX, 8-Cyclopentyl-1,3-dipropylxanthine], the “average and peak fluorescence intensity vs vehicle control lacking DPCPX” value on ADORA1 is given as “increase”.
